# Literature values, collected in patent publication US9320791B2, “Peptides from chaperonin 60.1” (PE[…], priority 2011, dated 2016).
# System: recruitment of eosinophils
# Details: animal model of allergic airway inflammation; disclosed in WO2009/106819
sequence,measurement,value
"DGSVVVNKVSELPAGHGLNVNTLSYGDLAAD (listed as Mycobacterium tuberculosis) [Peptide 4, peptide derivable from MtCpn60.1 disclosed in WO2009/106819]",recruitment of eosinophils,significantly reduce
